{"source": "patent US20180071317A1", "about": "“USE OF AGENTS THAT ALTER THE PERITUMORAL ENVIRONMENT FOR THE TREATMENT OF CANCER” (SERVICIO ANDALUZ DE SALUD, priority 2011, published 2018)", "key": {"[1]": {"system": "co-cultures of tumor cells-immune/inflammatory cells (leukocytes)", "assay": "Inhibition/survival in co-cultures of primary human tumor cells and leukocytes", "assay_type": "cell-based", "conditions": "SP + antagonist", "experimental": "To check that the interaction between the human primary tumor cells with human immune/inflammatory (polymorphonuclear and mononuclear leukocytes) cells, promotes the survival of both types of cells, cultures were carried out with sets of immune/inflammatory cells (mono and polymorphonuclear leukocytes) with tumor cells obtained directly from human primary tumors of patients.\nThe leukocytes were obtained from centrifugation of blood from the same patient. The leukocytes were cultured in fresh plasma from the same patient, in order to build a model similar to human physiology."}, "[2]": {"system": "macrophages in co-culture with cells isolated from primary human tumors", "assay": "Marker expression (IHC) in macrophages co-cultured with primary human tumor cells (colon, breast, ovarian, lung carcinoma, melanoma);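 also: macrophages came from pleural or peritoneal washings of the patient who also supplied the tumor cells, and both were co-cultured on fresh blood plasma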", "assay_type": "cell-based", "conditions": "SP + antagonist"}}}
{"smiles": "C[C@@H](O[C@H]1OCCN(Cc2n[nH]nc2CN(C)C)[C@H]1c1ccc(F)cc1)c1cc(C(F)(F)F)cc(C(F)(F)F)c1.Cl", "note": "[L-760735]", "values": [{"measurement": "survival/proliferation in co-cultures of tumor cells-leukocytes (in words)", "setting": "[1]", "result": "same results"}, {"measurement": "expression of markers in macrophages co-cultured with primary tumor cells (in words)", "setting": "[2]", "result": "same results"}]}
{"smiles": "CC(=O)N[C@@H](Cc1c[nH]c2ccccc12)C(=O)OCc1cc(C(F)(F)F)cc(C(F)(F)F)c1", "note": "[L-732,138, N-Acetyl-L-tryptophan 3,5-bis (trifluoromethyl)benzyl ester]", "values": [{"measurement": "survival/proliferation in co-cultures of tumor cells-leukocytes (in words)", "setting": "[1]", "result": "same results"}, {"measurement": "expression of markers in macrophages co-cultured with primary tumor cells (in words)", "setting": "[2]", "result": "same results"}]}
{"smiles": "COc1ccccc1CN[C@H]1CCCN[C@H]1c1ccccc1", "note": "[CP-100263]", "values": [{"measurement": "survival/proliferation in co-cultures of tumor cells-leukocytes (in words)", "setting": "[1]", "result": "same results"}, {"measurement": "expression of markers in macrophages co-cultured with primary tumor cells (in words)", "setting": "[2]", "result": "same results"}]}
{"smiles": "Ic1ccccc1CNC1C2CCN(CC2)C1C(c1ccccc1)c1ccccc1.O=C(O)C(=O)O", "note": "[L-703,606, cis-2-(Diphenylmethyl)-N-[(2-iodophenyl)methyl]-1-azabicyclo [2.2.2]octan-3-amine oxalate salt]", "values": [{"measurement": "survival/proliferation in co-cultures of tumor cells-leukocytes (in words)", "setting": "[1]", "result": "same results"}, {"measurement": "expression of markers in macrophages co-cultured with primary tumor cells (in words)", "setting": "[2]", "result": "same results"}]}
{"smiles": "COc1ccccc1CN[C@H]1C2CCN(CC2)[C@H]1C(c1ccccc1)c1ccccc1", "note": "[CP-96345]", "values": [{"measurement": "survival/proliferation in co-cultures of tumor cells-leukocytes (in words)", "setting": "[1]", "result": "same results"}, {"measurement": "expression of markers in macrophages co-cultured with primary tumor cells (in words)", "setting": "[2]", "result": "same results"}]}
{"smiles": "Cl.FC(F)(F)c1cc(CO[C@H]2CCCN[C@H]2c2ccccc2)cc(C(F)(F)F)c1", "note": "[L-733,060, (2S,3S)-3-[(3,5-bis (Trifluoromethyl)phenyl)methoxy]-2-phenylpiperidine hydrochloride]", "values": [{"measurement": "survival/proliferation in co-cultures of tumor cells-leukocytes (in words)", "setting": "[1]", "result": "same results"}, {"measurement": "expression of markers in macrophages co-cultured with primary tumor cells (in words)", "setting": "[2]", "result": "same results"}]}
{"smiles": "C#C[C@]1(O)CC[C@H]2[C@@H]3CC[C@H]4Cc5nc6nc7ccccc7n6cc5C[C@]4(C)[C@H]3CC[C@@]21C", "note": "[WIN 51708]", "values": [{"measurement": "survival/proliferation in co-cultures of tumor cells-leukocytes (in words)", "setting": "[1]", "result": "same results"}, {"measurement": "expression of markers in macrophages co-cultured with primary tumor cells (in words)", "setting": "[2]", "result": "same results"}]}
{"smiles": "C#C[C@]1(O)CC[C@H]2[C@@H]3CCC4=Cc5nc6nc7ccccc7n6cc5C[C@]4(C)[C@H]3CC[C@@]21C", "note": "[WIN 62,577]", "values": [{"measurement": "survival/proliferation in co-cultures of tumor cells-leukocytes (in words)", "setting": "[1]", "result": "same results"}, {"measurement": "expression of markers in macrophages co-cultured with primary tumor cells (in words)", "setting": "[2]", "result": "same results"}]}
